Assay results published in the NIST ThermoML archive (doi:10.1021/je700300y).
± gives the expanded uncertainty stated by the source.

Columns and labels:
[1] = refractive index (Na D-line) (dimensionless); details: 298.15 K; 101.33 kPa; Liquid; Standard Abbe refractometry
[2] = 101.33 kPa, Liquid
[3] = xn = mol fraction of the nth substance listed; details: 101 kPa, Liquid

CCO [ethanol]
Details | refractive index
[1] | 1.3595 ± 0.0007

[2]
Details | mass density [kg/m3]
283.15 K | 797.99 ± 0.23
288.15 K | 793.73 ± 0.23
293.15 K | 789.47 ± 0.24
298.15 K | 785.18 ± 0.24
303.15 K | 780.87 ± 0.24
308.15 K | 776.52 ± 0.25
313.15 K | 772.14 ± 0.25

CO [methanol]
Details | refractive index
[1] | 1.327 ± 0.0007

[2]
Details | mass density [kg/m3]
283.15 K | 800.67 ± 0.23
288.15 K | 795.98 ± 0.23
293.15 K | 791.28 ± 0.23
298.15 K | 786.57 ± 0.24
303.15 K | 781.85 ± 0.24
308.15 K | 777.1 ± 0.25
313.15 K | 772.32 ± 0.25

CO [methanol] + CCO
mass density [kg/m3], [3]
Details | x1 = 0.0729 | x1 = 0.1632 | x1 = 0.3251 | x1 = 0.5592 | x1 = 0.6349 | x1 = 0.7182 | x1 = 0.8027 | x1 = 0.8714 | x1 = 0.9485
283.15 K | 798.11 ± 0.23 | 798.27 ± 0.23 | 798.58 ± 0.23 | 799.14 ± 0.22 | 799.35 ± 0.22 | 799.6 ± 0.22 | 799.88 ± 0.22 | 800.12 ± 0.22 | 800.43 ± 0.22
288.15 K | 793.83 ± 0.23 | 793.97 ± 0.23 | 794.22 ± 0.23 | 794.68 ± 0.23 | 794.85 ± 0.23 | 795.07 ± 0.23 | 795.3 ± 0.23 | 795.51 ± 0.23 | 795.78 ± 0.23
293.15 K | 789.54 ± 0.23 | 789.64 ± 0.23 | 789.84 ± 0.23 | 790.2 ± 0.23 | 790.34 ± 0.23 | 790.52 ± 0.23 | 790.71 ± 0.23 | 790.89 ± 0.23 | 791.1 ± 0.23
298.15 K | 785.23 ± 0.24 | 785.3 ± 0.24 | 785.44 ± 0.24 | 785.7 ± 0.24 | 785.81 ± 0.24 | 785.95 ± 0.24 | 786.11 ± 0.23 | 786.25 ± 0.23 | 786.43 ± 0.23
303.15 K | 780.89 ± 0.24 | 780.94 ± 0.24 | 781.02 ± 0.24 | 781.19 ± 0.24 | 781.26 ± 0.24 | 781.36 ± 0.24 | 781.49 ± 0.24 | 781.59 ± 0.24 | 781.73 ± 0.24
308.15 K | 776.52 ± 0.24 | 776.54 ± 0.24 | 776.57 ± 0.24 | 776.65 ± 0.24 | 776.69 ± 0.24 | 776.76 ± 0.24 | 776.84 ± 0.24 | 776.9 ± 0.24 | 777.01 ± 0.24
313.15 K | 772.12 ± 0.25 | 772.11 ± 0.25 | 772.09 ± 0.25 | 772.08 ± 0.25 | 772.09 ± 0.25 | 772.12 ± 0.25 | 772.16 ± 0.25 | 772.19 ± 0.25 | 772.26 ± 0.25

O [water]
Details | refractive index
[1] | 1.3326 ± 0.0007
